The values that follow come from US20020049173A1, “Alteration of cellular behavior by antisense modulation of mRNA processing” (priority 1999, published 2002).

The subject of one data set is E-selectin mRNA. In words: Non-quantitative RT-PCR of E-selectin Type I, II and III transcripts in HUVEC. It is filed as cell-based, human. The note with it: relative to untreated cells, 200 nM stated for ISIS 106344. The protocol:
(§1) Total RNA was harvested from HUVEC at various times following TNF-α induction using a ToTALLY RNA kit (Ambion) according to the manufacturer's protocol). For Northern blots, RNA was separated on a 1.2% agarose gel containing 1.1% formaldehyde, then transferred to nylon membranes. Blots were hybridized with [^32P]-dCTP random prime labeled cDNA probes specific for E-selectin or […] (G3PDH) for 2 hours in Rapid-hyb solution (Amersham). Blots were washed with 2×SSC containing 0.1% SDS at room temperature, followed by 0.1×SSC containing 0.1% SDS at 60° C. Quantitation of RNA expression was performed using a Molecular Dynamics PhosphorImager. Anchored reverse transcriptase polymerase chain reaction (RT/PCR) was performed essentially as described by Chu et al. (supra.).
To determine if processing could be controlled more specifically, oligonucleotides were also designed to the upstream polyadenylation signals. Non-quantitative RT-PCR was used to distinguish among the three forms of the message. In the absence of oligonucleotide, all three types of transcript were detected. […] This difference may be due to variation in the efficiency of PCR amplification on the varying length products, with the shorter Type I and II messages being more efficiently amplified than the Type III product. […] To determine if the effects of ISIS 106344 were unique, antisense oligonucleotides were designed to the Type I and Type II polyadenylation sites.
To evaluate whether treatment with two oligonucleotides would result in the production of a single species of E-selectin message, HUVEC were treated with ISIS 106344, and either ISIS 135568 or ISIS 135570 (150 nM each). […] Cells were also treated with both ISIS 135568 and ISIS 135570.

The subject of data set [1] is Human IL-5 receptorα membrane form mRNA. In words: Human IL-5 receptorα membrane form mRNA expression (18 hr). It is filed as cell-based. Also noted: % INHIB'N, human IL-5 receptorα membrane form mRNA / % of CONTROL, human IL-5 receptorα membrane form mRNA: concentration or dose not given beside the values. The source says:
mRNA transcripts encoding the membrane form of the human IL-5 receptorα contain exons 1-10 and 12-14. Exon 11 is spliced out. It is, therefore, possible to target sequences in exons 1-10 which are common to both soluble and membrane forms of the receptor, or to selectively target sequences only present in the membrane form (exons 12-14). Oligonucleotides were also designed to target various intron/exon boundaries downstream of exon 11, with the intention of preventing successful splicing out of exon 11 and thus redirecting splice products away from the membrane form and in favor of the soluble form of IL-5 receptorα.
(§2) A series of oligonucleotides were designed to target various splice sites or (intron-exon boundaries) in the IL-5 receptor mRNA.

For another data set, the system named is Human IL-5 receptorα. The data set can be described thus: Human IL-5 receptorα protein expression on the cell surface (36 hr), TF-1 cells. In kind it is cell-based. Also noted: % INHIB, human IL-5 receptorα protein on the cell surface / % of CONTROL, human IL-5 receptorα protein on the cell surface: concentration or dose not given beside the values.
Description: as §2
ISIS 16746, 16748, 16755 and 16758 inhibited human IL-5 receptorα protein by over 50% in this assay and are therefore preferred. ISIS 16758 and 16755 were chosen for further study.

The subject of data set [2] is TF-1 cells. The data set can be described thus: IL-5-induced TF-1 cell proliferation, [3H]-thymidine incorporation. It is filed as cell-based, human. The note with it: for % of control thymidine incorporation: compared to untreated controls. As for the experimental part: 2.5×10^4 TF-1 cells were incubated in 96-well plates in 200 μl complete RPMI in the absence of IL-5 for 16 hours following electroporation. IL-5 (0.5 ng/ml) was added and the cultures were pulsed with 1 μCi of [^3H]-thymidine for the last 8 hours of a 48-hour culture period. The cells were harvested on glass fiber filters and analyzed for thymidine incorporation (proportional to cell proliferation) by liquid scintillation counting.
Results are compared to thymidine incorporation in untreated controls.
For orientation: Incorporation of labelled thymidine or its analogues reports DNA synthesis.

The next data set concerns E-selectin. The data set can be described thus: E-selectin cell surface protein expression by flow cytometry in HUVEC. It is filed as cell-based, human. The note with it: after addition of TNF-α. As for the experimental part:
(§3) HUVEC (Clonetics, San Diego, Calif.) were cultivated in endothelial basal media supplemented with 10% fetal bovine serum. Cells were treated with oligonucleotides as described previously (Chiang, 1991, J. Biol. Chem. 27:18162-18171; Vickers, 2000, Nucleic Acids Res. 28:1340-1347). Briefly, cells were incubated with a mixture of Lipofectin (Gibco BRL, Gaithersburg, Md.) and oligonucleotide for 4 hours. Cells were incubated for 2-24 hours, then treated with 5 ng/ml TNF-α for 2-3 hours to induce expression of E-selectin. Cells were then washed extensively with phosphate buffered saline (PBS), fresh complete media was added and cells were incubated at 37° C. until harvested.
Following oligonucleotide treatment, cells were detached with D-PBS (without calcium and magnesium) supplemented with 4 mM EDTA. Cells were centrifuged at 5,000 rpm for 1 minute and washed in 2% bovine serum albumin (BSA), 0.2% sodium azide in D-PBS at 4° C. E-selectin-phycoerythrin antibody (Ancell) was then added at 1:100 in 0.1 ml of the above buffer, and incubated for 30 min at 4° C. in the dark. Cells were washed again as above and resuspended in 0.3 ml of PBS buffer with 0.5% formaldehyde. Cells were analyzed for E-selectin expression on a FACScan (Becton-Dickinson). Results are expressed as percentage of control expression based upon the mean fluorescence intensity.
The treated cells were stimulated with TNF-α for 2 hours, then analyzed for E-selectin protein expression by flow cytometry. […] Results at the protein level are not as dramatic as at the RNA level due to the fact that the Type III message remains the predominant RNA species present (FIG. 2). Any change in protein stability resulting from the presence of the type I/II message would likely be partially masked by the more abundant Type III RNA.
Background: A flow cytometer gives signals particle by particle.

The subject of data set [3] is E-selectin mRNA (Type III polyadenylation signal and site). The data set can be described thus: E-selectin transcript forms by Northern blot in TNF-α-induced HUVEC. It is filed as cell-based, human. The note with it: increasing oligonucleotide dose, TNF-α 2 hours. The protocol: as §3, §1
HUVEC were treated with 2′-O-methoxyethyl (MOE)/phosphorothioate antisense oligonucleotides directed to the Type III polyadenylation signal and site (Table 1A) as described above. After about 24 hours, cells were treated with TNF-α to induce E-selectin expression. Cells were harvested after 2 hours and RNA was isolated. E-selectin expression was analyzed by Northern blotting. […] With increasing oligonucleotide dose, the longer Type III message decreased while a shorter message increased (FIG. 2). This shorter message most likely represents a combination of Type I and II messages, because the Type II message is just 158 bases longer than the Type I message, and the difference in sizes cannot be resolved on the gel which was used.

The subject of data set [4] is TF-1 cells. In words: Apoptosis induction in TF-1 cells, Annexin-V staining. It is filed as cell-based, human. Particulars: 48 hours, IL-5 0.5 ng/ml. The protocol:
1×10^6 TF-1 cells cultured in IL-5 (0.5 ng/ml) were collected 48 hours following oligonucleotide treatment (transfection was by electroporation as described in previous examples) and phosphatidylserine expression was detected as a measure of apoptosis using the Annexin-V staining kit (Clontech, Palo Alto, Calif.) according to the manufacturer's instructions. Briefly, cells were resuspended in 0.2 ml of staining buffer (10 mM Hepes, pH 7.4, 140 mM NaCl, 5 mM CaCl2) and […] of propidium iodide (50 μg/ml) and 5 μl of Annexin V reagent were added at 4° C. for 10 minutes. The samples were diluted with FacsFlow (Becton Dickinson, Franklin Lakes N.J.) buffer and analyzed on a Becton Dickinson FACScan.

In the oligonucleotide strings, read from the 5' end, every base follows the letter of its sugar. An asterisk marks phosphorothioate; unmarked linkages are phosphodiester. Other units and linkages are bracketed, terminal groups are in braces. A string of capitals states the bases alone. e = 2'-O-(2-methoxyethyl) (MOE); [5mC] = 5-methylcytosine

For “ISIS 135570: CAGAACTTTATTCTGGTTAACATCATG, SEQ ID 71; E-selectin Type I poly(A) signal (all 2'-MOE, all phosphorothioate, methylation of C not given here)”, in the data set on E-selectin mRNA, the “Type I E-selectin message (RT-PCR)” value is recorded as “greatly reduced”, the “Type II E-selectin message (RT-PCR)” value is listed as “increased” and the “Type III E-selectin message (RT-PCR)” value was “increased”.

In general, IC50 refers to the point on the concentration scale where inhibition reaches its midpoint. Consider “ISIS 16758: TCATCATTTCCTGGTGGAAA, SEQ ID 35; I11/E12; uniform 2′-MOE (antisense eT*e[5mC]*eA*eT*e[5mC]*eA*eT*eT*eT*e[5mC]*e[5mC]*eT*eG*eG*eT*eG*eG*eA*eA*eA)”, for which, in data set [1], the “effect on IL-5 receptorα mRNA levels” value is on record as “without reducing mRNA levels”. In addition, the “% INHIB, human IL-5 receptorα protein on the cell surface” value with Human IL-5 receptorα (36 hr) is on record as “over 50%”. In addition, the IC50 in the data set with Human IL-5 receptorα (TF-1 cells, read-out: IC50 for reduction of IL-5 receptorα cell surface protein) is approximately 5 µM. Moreover, in the data set on TF-1 cells [2] (TF-1 cells), the “cell proliferation in response to IL-5 (summary)” value is “greatly reduces cellular response to IL-5”.

In the case of “ISIS 135568: GCTTTTATTAGTTCAAAACGTTTGG, SEQ ID 70; E-selectin Type II poly(A) signal (all 2'-MOE, all phosphorothioate, methylation of C not given here)”, in the data set on E-selectin mRNA, the “Type I E-selectin message (RT-PCR)” value is given as “corresponding increases”, the “Type II E-selectin message (RT-PCR)” value is reported as “sharp decrease” and the “Type III E-selectin message (RT-PCR)” value is reported as “corresponding increases”.

With “ISIS 106346: CATCAGAACTTATATAGTCA, SEQ ID 68; 106344 mismatch control (all 2'-MOE, all phosphorothioate, methylation of C not given here) [reference compound]”, in the data set with E-selectin, the “time of maximal E-selectin protein expression” value is recorded as “four hours after addition of TNF-α”.

As to “ISIS 106345: AGAAAGAGACTTAACACAGA, SEQ ID 67; uniformly 2′-MOE phosphorothioate; E-selectin Type III poly(A) site (all 2'-MOE, all phosphorothioate, methylation of C not given here)”, in data set [3], the “longer Type III E-selectin message (Northern blot)” value is given as “decreased”; the “shorter E-selectin message (Type I and II) (Northern blot)” value was “increased”.

Turning to “18011 (eT*e[5mC]*eA*eG*e[5mC]*eA*eG*eT*eT*eA*e[5mC]*eT*eT*eG*eT*eG*eT*eA*eA*eA) [compound 18011]”, the “% Apoptotic cells” value amounted to 19% with TF-1 cells [4] (oligo dose 10 μM), 23.6% with TF-1 cells [4] (oligo dose 15 μM) and 21.8% in the data set with TF-1 cells [4] (oligo dose 20 μM). The “% of control thymidine incorporation” value in the data set with TF-1 cells [2] (oligo dose 10 μM) came to 95.6%; in the data set with TF-1 cells [2] (oligo dose 15 μM) it was 97.9%; with TF-1 cells [2] (oligo dose 20 μM), 84.6%.

Take “16758 (antisense eT*e[5mC]*eA*eT*e[5mC]*eA*eT*eT*eT*e[5mC]*e[5mC]*eT*eG*eG*eT*eG*eG*eA*eA*eA) [compound 16758]”: in data set [1] (18 hr), the “% of CONTROL, human IL-5 receptorα membrane form mRNA” value was 176%. In addition, the “% INHIB, human IL-5 receptorα protein on the cell surface” value in the data set with Human IL-5 receptorα (36 hr) amounted to 94.5%. In addition, in the data set with Human IL-5 receptorα (36 hr), the “% of CONTROL, human IL-5 receptorα protein on the cell surface” value is reported as 5.5%. Also, the “% Apoptotic cells” value in the data set on TF-1 cells [4] (oligo dose 10 μM) is given as 33.1%; in the data set on TF-1 cells [4] (oligo dose 15 μM), 40.1%; with TF-1 cells [4] (oligo dose 20 μM), 50.4%. For the same substance, the “% of control thymidine incorporation” value in the data set on TF-1 cells [2] (oligo dose 10 μM) is recorded as 42.8%; with TF-1 cells [2] (oligo dose 15 μM) it was 39.2%; in the data set with TF-1 cells [2] (oligo dose 20 μM), 19.9%.
